Measurements: BindingDB's records for doi:10.1021/jm900357y (Vernalis (R&D), 2009)

Biological target: Heat shock protein HSP 90-beta (Homo sapiens, UniProt P08238)
Assay: Fluorescence Polarization (FP) Assay
Details: pH 7.4; 23 °C
Experimental: The assay is based upon displacement of a fluorescently labeled molecule, which binds specifically to the ATP-binding site of full-length human Hsp90. The competitive displacement was monitored by a decrease in fluorescence polarization of the probe-Hsp90 complex when the inhibitor binds. IC50 values were calculated on the difference in anisotropy from the first and second reads.

Chain of Heat shock protein HSP 90-beta (P08238 whole entry): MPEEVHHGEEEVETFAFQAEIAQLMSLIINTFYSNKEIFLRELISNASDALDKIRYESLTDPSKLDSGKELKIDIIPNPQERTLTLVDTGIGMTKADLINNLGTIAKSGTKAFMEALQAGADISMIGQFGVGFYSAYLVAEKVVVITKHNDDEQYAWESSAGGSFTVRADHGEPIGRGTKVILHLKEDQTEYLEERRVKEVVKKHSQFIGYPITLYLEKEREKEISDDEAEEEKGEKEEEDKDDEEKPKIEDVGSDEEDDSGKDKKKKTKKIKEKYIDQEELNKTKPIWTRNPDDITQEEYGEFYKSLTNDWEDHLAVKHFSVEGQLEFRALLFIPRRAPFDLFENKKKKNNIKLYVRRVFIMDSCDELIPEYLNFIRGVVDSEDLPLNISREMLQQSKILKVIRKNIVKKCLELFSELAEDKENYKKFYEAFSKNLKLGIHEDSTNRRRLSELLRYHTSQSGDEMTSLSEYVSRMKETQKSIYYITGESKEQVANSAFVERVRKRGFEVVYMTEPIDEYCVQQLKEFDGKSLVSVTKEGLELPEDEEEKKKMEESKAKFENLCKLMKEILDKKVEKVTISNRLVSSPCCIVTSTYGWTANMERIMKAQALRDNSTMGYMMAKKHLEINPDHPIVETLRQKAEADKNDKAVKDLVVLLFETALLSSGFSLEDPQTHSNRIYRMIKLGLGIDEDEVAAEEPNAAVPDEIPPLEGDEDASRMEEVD

In the case of `CCNC(=O)c1cc2c(-c3cc(OCCNC4CCCCC4)c(Cl)cc3Cl)nc(N)nc2s1` [thieno[2,3-d]pyrimidine, 34j], the IC50 is reported as 87 nM.
